In patent US12303474B2, “S-enantiomerically enriched compositions of beta blockers for treating amyotrophic lateral sclerosis” (priority 2013, dated 2025):
Where two headings read alike, the source gives them in different places.

Key:
[1] = test system: G93A SOD1 B6SJL hybrid (G93A) model; details: 10 mg/kg/day vs. placebo;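 on HR survival (FIG. 14): dosing began after ALS onset in G93A SOD1 mice, with survival as the endpoint, defined humanely as the animal failing to regain upright posture within 30 s when placed sideways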;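 on HR survival (FIG. 16): dosing began after ALS onset in G93A SOD1 mice, with survival as the endpoint, defined humanely as the animal failing to regain upright posture within 30 s when placed sideways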
Protocol: There were 16 mice in the S-oxprenolol group.
The primary endpoint was survival, humanely defined as the ability of the animal to right itself in 30 seconds after being laid on its side. Secondary endpoints were body weight, body composition, spontaneous activity and food intake. Body weight of the animals was assessed weekly until onset of disease. Additionally, body composition (fat mass and lean body mass) was assessed using NMR scans (EchoMRI-100, Echo Medical Systems, Houston, USA) every 4 days. After onset of disease, body weight and body composition were assessed every two days until the end of the study. All personal handling the animals was strictly blinded to the randomized treatment allocation.
To study the effect of S-oxprenolol on survival, survival was monitored over time.

[2] = test system: G93A SOD1 B6SJL hybrid (G93A) model; details: 10 mg/kg/d; for Heart / gastrocnemius: end of study;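 on HR survival (FIG. 14): dosing began after ALS onset in G93A SOD1 mice, with survival as the endpoint, defined humanely as the animal failing to regain upright posture within 30 s when placed sideways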;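 on HR survival (FIG. 16): dosing began after ALS onset in G93A SOD1 mice, with survival as the endpoint, defined humanely as the animal failing to regain upright posture within 30 s when placed sideways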
[3] = test system: G93A SOD1 B6SJL hybrid (G93A) model; assay: Disease progression score (JAX SOP) in G93A SOD1 transgenic mice; details: 10 mg/kg/day vs. placebo
Description: The disease progression score is based on the JAX SOP (Ludolph A C, Bendotti C, Blaugrund E, Hengerer B, Loffler J P, Martin J, Meininger V, Meyer T, Moussaoui S, Robberecht W, Scott S, Silani V, Van Den Berg L H (ENMC Group For The Establishment Of Guidelines For The Conduct Of Preclinical And Proof Of Concept Studies In ALS/MND Models). 2007, which is incorporated by reference).

[4] = test system: G93A SOD1 B6SJL hybrid (G93A) model; assay: Body weight and body composition (lean mass, fat mass; NMR scans) in G93A SOD1 transgenic mice; format: in vivo; details: 10 mg/kg/d; for Average Δ body weight / Average Δ fat mass / Average Δ lean mass: per day alive after disease onset

## CC(C)NCC(O)COc1cccc2ccccc12 (centres unmarked) [propanolol]
[1]; all mice
  HR survival (FIG. 14): 0.73
[1]; female mice
  HR survival (FIG. 16): 0.71
[1]; male mice
  HR survival (FIG. 15): 0.59
[2]; all mice
  BAT (brown adipose tissue): 45.1 ± 2.9 mg
  EDL (extensor digitorum longus): 7.11 ± 0.37 mg
  soleus: 5.60 ± 0.28 mg
  Heart: 104.0 ± 3.2 mg
  gastrocnemius: 52.4 ± 3.3 mg
[2]; female mice
  BAT (brown adipose tissue): 41.2 ± 2.2 mg
  EDL (extensor digitorum longus): 6.21 ± 0.37 mg
  soleus: 5.57 ± 0.43 mg
  Heart: 93.8 ± 2.7 mg
  gastrocnemius: 40.6 ± 3.3 mg
[2]; male mice
  BAT (brown adipose tissue): 48.7 ± 5.1 mg
  EDL (extensor digitorum longus): 7.94 ± 0.55 mg
  soleus: 5.63 ± 0.38 mg
  Heart: 113.5 ± 4.6 mg
  gastrocnemius: 63.3 ± 3.6 mg
[3]
  HR Progression from score 1 to score 2 (FIG. 17): 0.64
  HR Progression from score 1 to score 3 (FIG. 19): 0.72
  HR Progression from score 2 to score 3 (FIG. 18): 0.99
[4]; all mice
  Δ body weight: -5.89 ± 0.42 g
  Δ fat mass: -1.82 ± 0.25 g
  Δ lean mass: -4.89 ± -0.26 g
  Average Δ body weight: -127.6 ± 10.6 mg/day
  Average Δ fat mass: -43.9 ± 5.5 mg/day
[4]; female mice
  Δ body weight: -5.66 ± 0.66 g
  Δ fat mass: -1.65 ± 0.44 g
  Δ lean mass: -4.70 ± 0.37 g
  Average Δ body weight: -111.3 ± 13.2 mg/day
  Average Δ fat mass: -30.9 ± 8.3 mg/day
  Average Δ lean mass: -91.2 ± 8.3 mg/day
[4]; male mice
  Δ body weight: -6.11 ± 0.54 g
  Δ fat mass: -1.99 ± 0.26 g
  Δ lean mass: -5.06 ± 0.37 g
  Average Δ body weight: -142.7 ± 15.9 mg/day
  Average Δ fat mass: -51.9 ± 6.9 mg/day
  Average Δ lean mass: -118.6 ± 10.6 mg/day
